Measurements taken from patent US20210137990A1, “METHODS FOR EXP ANDING ADIPOSE-DERIVED STEM CELLS” (CELLECT BIOTHERAPEUTICS LTD., priority 2018, published 2021).
Entries after “also recorded” stand apart in the source; their conditions may differ. Residues, ends and D or L forms follow the SMILES beside them. *: point of attachment. Cbz = O=C(OCc1ccccc1)*; CH2F = FC*

Tests used:
ASCs [1] = experiment: ASC proliferation with Fas-L and inhibitors for 4 days, cell counts; assay type: cell-based, human
From the text: (§1) The dual effect of Fas-L on the apoptosis and proliferation of ASCs, can be mediated solely by canonical Fas-L signaling or through two distinct pathways. To distinguish between these possibilities, ASCs were either left untreated, treated with Fas-L only or treated simultaneously with Fas-L and with the pan-caspase inhibitor […], for 4 days. Importantly, to better evaluate the apoptotic cue of Fas-L, a different Fas-L derivative (mega-Fas-L), which induces high rates of apoptosis in passage 3 ASCs, was used in the current experiments. Sub-G1 proportions and cell numbers were determined by PI cell-cycle flow cytometry analysis and standard cell counts respectively. The experiment was repeated 3 times using cells from 3 independent patients.
Accordingly, cultured Passage 2-4 ASCs were treated with a combination of mega Fas-L, Z-VAD-fmk, LY294002 (PI3K inhibitor), AZD6244 (ERK-1/2 inhibitor) and SP600125 (JNK inhibitor) for 4 days.
After 4 days, cells were removed from plates by trypsin and cells were counted using a standard cell counter. The experiment was repeated 3 times using cells from 3 independent patients.
To test the effects of inhibitors on proliferation of mature ASCs (P2 and P3 ASCs), cells were seeded into 24-well plates (10.000 cells/well) and allowed to attach and grow for 24 h. Then, medium was exchanged for fresh normal growth medium or growth medium supplemented with Fas-L or with Fas-L and one of the inhibitors. Cells were then cultured for 4 days.
At the end of the incubation period, adherent cells were trypsinized, collected and counted with a TC10 Automated Cell Counter (Bio-rad).

ASCs [2] = experiment: ASC apoptosis with Fas-L and inhibitors for 4 days, sub-G1 by PI cell-cycle flow cytometry; assay type: cell-based, human; conditions: Z-VAD-fmk added to mega-Fas-L
From the text: as §1
Cells were harvested and fixed with 70% ethanol/PBS, treated with RNaseA 0.4 mg/ml (Sigma) and stained with propidium iodide (PI) 0.1 mg/ml (Sigma).
All labeled cells were analyzed using a FACS Canto II flow cytometer (Becton Dickinson, San Jose, Calif., USA). At least 10.000 events were recorded. Data analysis was performed using the FlowJo software (Tree Star, Ashland, Oreg., USA).

Structure (SMILES)	ASC counts compared to cells treated with Fas-L only (ASCs [1]; P2-4 ASCs, mega Fas-L plus inhibitor, 4 days)	cell quantities (ASCs [1]; P2-4 ASCs, mega Fas-L, Z-VAD-fmk plus inhibitor, 4 days)	Fas-L-dependent proliferation of ASCs (ASCs [1]; inhibitor added to Fas-L)	cell yield (ASCs [1]; Fas-L and Z-VAD-fmk together, 4 days, vs untreated)	Fas-L-induced ASC proliferation (ASCs [1]; Z-VAD-fmk added to mega-Fas-L, 4 days)	cell expansion (ASCs [1]; Z-VAD-fmk only, 4 days)	Fas-L-induced apoptosis of ASCs (sub-G1) (ASCs [2])
Cn1cnc2c(F)c(Nc3ccc(Br)cc3Cl)c(C(=O)NOCCO)cc21 [AZD6244]	reduced ASC counts	comparable to untreated control	could be inhibited	–	–	–	–
COC(=O)C[C@H](NC(=O)[C@H](C)NC(=O)[C@@H](NC(=O)OCc1ccccc1)C(C)C)C(=O)CF [Z-VAD-fmk] (Cbz-Val-Ala-Asp(OMe)-CH2F)	–	–	–	doubled cell yield	not affected; also recorded: without impacting; also recorded: minor to negligible effect	No such increased expansion	considerably attenuated; also recorded: near-complete inhibition
